Laboratory results published in BindingDB's records for doi:10.1016/s0960-894x(99)00675-7 (Medivir, 2000).

molecular target: T1, Gag-Pol polyprotein [588-1027]/[588-1147] (Human immunodeficiency virus 1, UniProt P04585); test: HIV-1 RT Assay; details: pH 7.8; 37 °C
T1 construct: 588-1027; 588-1147
Description: The IC50 of reverse transcriptase is the concentration that inhibits 50% of recombinant HIV-1 RT RNA-directed DNA polymerase activity in vitro.

How did the IC50 turn out when `O=C(CCNC(=S)Nc1ccc(Br)cn1)c1ccccc1` [3-(5-bromopyridin-2-yl)-1-(3-oxo-3-phenylpropyl)thiourea] was run?
The IC50 was < 0.027 µM.

How did the IC50 turn out when `N#CN/C(=N\c1ccc(Cl)cn1)NCCc1ccccc1` [5-chloro-2-cyano-1-(2-phenylethyl)pyridine-2-guanidine] was run?
The IC50 was > 10 µM.

`O=S(=O)(NCCc1ccccc1)Nc1ccc(Cl)cn1` [[(5-chloropyridin-2-yl)sulfamoyl](2-phenylethyl)amine] was tested. Which IC50 did it give?
The IC50 was > 10 µM.

Which IC50 does the source give for `O=C(CC/N=C(\S)Nc1ccc(Br)cn1)c1cc(F)ccc1F` [3-(5-bromopyridin-2-yl)-1-[3-(2,5-difluorophenyl)-3-oxopropyl]thiourea] here?
Its IC50 is < 0.025 µM.

Which IC50 does the source give for `COc1ccccc1CCN=C(NC#N)Nc1nccs1` [2-cyano-3-[2-(2-methoxyphenyl)ethyl]-1-1,3-thiazol-2-ylguanidine] here?
The IC50 was > 10 µM.
